ChEMBL document CHEMBL1201861, “Genomics of Drug Sensitity in Cancer screening data, Wellcome Trust Sanger Institute”

Assays:
Assay in all cases: cells
HuTu80 = type: functional, cell-based, Homo sapiens, HUTU-80; conditions: Homo sapiens, HuTu80;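 further: growth inhibition of HuTu80 human cells, determined with a cell viability readout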
Description: SANGER: Inhibition of human HUTU-80 cell growth in a cell viability assay.

786-0 = type: functional, cell-based, Homo sapiens; conditions: Homo sapiens
Description: SANGER: Inhibition of human 786-0 cell growth in a cell viability assay.

NCI-H1993 = type: functional, cell-based, Homo sapiens; conditions: Homo sapiens, NCI-H1993;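 further: growth inhibition of the cancer cell line, assessed with a cell viability assay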
Description: SANGER: Inhibition of human NCI-H1993 cell growth in a cell viability assay.

P12-Ichikawa = type: functional, cell-based; conditions: Homo sapiens
TGBC24TKB = type: functional, cell-based, Homo sapiens; conditions: Homo sapiens, TGBC24TKB;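 further: growth inhibition of human TGBC24TKB cells, read out with a cell viability assay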
Description: SANGER: Inhibition of human TGBC24TKB cell growth in a cell viability assay.

CHL-1 = type: functional, cell-based, Homo sapiens; conditions: Homo sapiens, CHL-1;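 further: cell growth inhibition, read out with a cell viability assay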
Description: SANGER: Inhibition of human CHL-1 cell growth in a cell viability assay.

NEC8 = type: functional, cell-based, Homo sapiens; conditions: Homo sapiens, NEC8;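 further: growth inhibition of human NEC8 cells, read out by a cell viability assay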
Description: SANGER: Inhibition of human NEC8 cell growth in a cell viability assay.

HOP-62 = type: functional, cell-based, Homo sapiens; conditions: Homo sapiens, HOP-62;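 further: cell growth inhibition determined with a viability assay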
Description: SANGER: Inhibition of human HOP-62 cell growth in a cell viability assay.

EW-11 = type: functional, cell-based, Homo sapiens; conditions: Homo sapiens, EW-11;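 further: growth inhibition of human EW-11 cells, measured with a cell viability assay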
Description: SANGER: Inhibition of human EW-11 cell growth in a cell viability assay.

KU-19-19 = type: functional, cell-based, Homo sapiens; conditions: Homo sapiens, KU-19-19
Description: SANGER: Inhibition of human KU-19-19 cell growth in a cell viability assay.

ML-2 = type: functional, cell-based; conditions: Homo sapiens;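 further: growth inhibition of ML-2 cells, measured with a cell viability readout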
Description: SANGER: Inhibition of human ML-2 cell growth in a cell viability assay.

SW 962 = type: functional, cell-based, Homo sapiens; conditions: Homo sapiens, SW 962;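 further: growth inhibition of human SW962 cells, read out by a cell viability assay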
Description: SANGER: Inhibition of human SW962 cell growth in a cell viability assay.

EGI-1 = type: functional, cell-based, Homo sapiens; conditions: Homo sapiens, EGI-1;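 further: cell viability readout used to gauge growth inhibition of EGI-1 cells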
Description: SANGER: Inhibition of human EGI-1 cell growth in a cell viability assay.

LS-1034 = type: functional, cell-based, Homo sapiens; conditions: Homo sapiens, LS-1034
Description: SANGER: Inhibition of human LS-1034 cell growth in a cell viability assay.

HLE = type: functional, cell-based, Homo sapiens; conditions: Homo sapiens, HLE;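 further: growth inhibition of human HLE cells, read out by a cell viability assay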
Description: SANGER: Inhibition of human HLE cell growth in a cell viability assay.

MFH-ino = type: functional, cell-based; conditions: Homo sapiens;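 further: growth inhibition of human MFH-ino cells, read out by a cell viability assay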
Description: SANGER: Inhibition of human MFH-ino cell growth in a cell viability assay.

MC-IXC = type: functional, cell-based, Homo sapiens; conditions: Homo sapiens, MC-IXC;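 further: growth inhibition of MC-IXC cells, read out with a cell viability assay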
Description: SANGER: Inhibition of human MC-IXC cell growth in a cell viability assay.

SW1463 = type: functional, cell-based, Homo sapiens; conditions: Homo sapiens, SW1463;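 further: growth inhibition of SW1463 cells, determined with a cell viability assay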
Description: SANGER: Inhibition of human SW1463 cell growth in a cell viability assay.

HCC1937 = type: functional, cell-based, Homo sapiens; conditions: Homo sapiens, HCC1937;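 further: growth inhibition measured with a cell viability read-out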
Description: SANGER: Inhibition of human HCC1937 cell growth in a cell viability assay.

EW-1 = type: functional, cell-based, Homo sapiens; conditions: Homo sapiens, EW-1
Description: SANGER: Inhibition of human EW-1 cell growth in a cell viability assay.

COLO-320-HSR = type: functional, cell-based; conditions: Homo sapiens;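 further: growth inhibition of COLO-320-HSR cells, determined with a cell viability assay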
Description: SANGER: Inhibition of human COLO-320-HSR cell growth in a cell viability assay.

Lu-65 = type: functional, cell-based; conditions: Homo sapiens;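 further: growth inhibition of Lu-65 cancer cells, read out by a cell viability assay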
Description: SANGER: Inhibition of human LU-65 cell growth in a cell viability assay.

CAKI-1 = type: functional, cell-based, Homo sapiens; conditions: Homo sapiens, CAKI-1;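 further: growth inhibition of CAKI-1 cells, measured by a cell viability assay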
Description: SANGER: Inhibition of human CAKI-1 cell growth in a cell viability assay.

NB14 = type: functional, cell-based; conditions: Homo sapiens;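 further: growth inhibition of NB14 cells measured with a cell viability assay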
Description: SANGER: Inhibition of human NB14 cell growth in a cell viability assay.

PC-14 = type: functional, cell-based, Homo sapiens; conditions: Homo sapiens, PC-14;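 further: cell viability assay measuring inhibition of PC-14 cell growth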
Description: SANGER: Inhibition of human PC-14 cell growth in a cell viability assay.

J82 = type: functional, cell-based; conditions: Homo sapiens;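 further: growth inhibition of J82 cells, read out with a cell viability assay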
Description: SANGER: Inhibition of human J82 cell growth in a cell viability assay.

SNU1 = type: functional, cell-based; conditions: Homo sapiens;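 further: growth inhibition of human NCI-SNU-1 cells, measured with a cell viability assay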
Description: SANGER: Inhibition of human NCI-SNU-1 cell growth in a cell viability assay.

DSH1 = type: functional, cell-based, Homo sapiens; conditions: Homo sapiens, DSH1;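 further: growth inhibition of human DSH1 cells, measured with a cell viability readout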
Description: SANGER: Inhibition of human DSH1 cell growth in a cell viability assay.

NCI-H661 = type: functional, cell-based, Homo sapiens; conditions: Homo sapiens, NCI-H661;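 further: cell viability assay read-out, IC50 being the concentration that inhibits growth of the cells by half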
Description: SANGER: Inhibition of human NCI-H661 cell growth in a cell viability assay.

SAS = type: functional, cell-based, Homo sapiens; conditions: Homo sapiens, SAS;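 further: growth inhibition of SAS cells, read out with a cell viability assay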
Description: SANGER: Inhibition of human SAS cell growth in a cell viability assay.

A-427 = type: functional, cell-based, Homo sapiens; conditions: Homo sapiens, A-427;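 further: growth inhibition of human A-427 cells, read out by a cell viability assay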
Description: SANGER: Inhibition of human A427 cell growth in a cell viability assay.

KY821 = type: functional, cell-based; conditions: Homo sapiens;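 further: growth inhibition of human KY821 cells, read out by a cell viability assay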
Description: SANGER: Inhibition of human KY821 cell growth in a cell viability assay.

TE-9 = type: functional, cell-based, Homo sapiens; conditions: Homo sapiens, TE-9;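 further: cell growth inhibition, measured with a cell viability readout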
Description: SANGER: Inhibition of human TE-9 cell growth in a cell viability assay.

SiHa = type: functional, cell-based, Homo sapiens; conditions: Homo sapiens, SiHa;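 further: Viability-based readout of growth inhibition in SiHa cells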
Description: SANGER: Inhibition of human SiHa cell growth in a cell viability assay.

CGTH-W-1 = type: functional, cell-based, Homo sapiens; conditions: Homo sapiens, CGTH-W-1;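 further: growth inhibition of human CGTH-W-1 cells measured by cell viability assay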
Description: SANGER: Inhibition of human CGTH-W-1 cell growth in a cell viability assay.

LB373-MEL-D = type: functional, cell-based, Homo sapiens; conditions: Homo sapiens, LB373-MEL-D;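 further: growth inhibition of the cell line, read out in a cell viability assay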
Description: SANGER: Inhibition of human LB373-MEL-D cell growth in a cell viability assay.

MDA-MB-415 = type: functional, cell-based; conditions: Homo sapiens
LK-2 = type: functional, cell-based, Homo sapiens; conditions: Homo sapiens, LK-2;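 further: growth inhibition of LK-2 cells, read out with a viability assay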
Description: SANGER: Inhibition of human LK-2 cell growth in a cell viability assay.

NCI-H1770 = type: functional, cell-based; conditions: Homo sapiens;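 further: growth inhibition of NCI-H1770 cells determined with a viability readout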
Description: SANGER: Inhibition of human NCI-H1770 cell growth in a cell viability assay.

NCI-H446 = type: functional, cell-based; conditions: Homo sapiens;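 further: growth inhibition of NCI-H446 cells determined by a cell viability assay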
Description: SANGER: Inhibition of human NCI-H446 cell growth in a cell viability assay.

5637 = type: functional, cell-based, Homo sapiens; conditions: Homo sapiens
Description: SANGER: Inhibition of human 5637 cell growth in a cell viability assay.

PA-1 = type: functional, cell-based, Homo sapiens; conditions: Homo sapiens, PA-1;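 further: IC50 for suppression of PA-1 cell proliferation, determined with a cell viability read-out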
Description: SANGER: Inhibition of human PA-1 cell growth in a cell viability assay.

PSN1 = type: functional, cell-based, Homo sapiens; conditions: Homo sapiens, PSN1;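 further: suppression of growth of human PSN1 cells, read out by a cell viability assay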
Description: SANGER: Inhibition of human PSN1 cell growth in a cell viability assay.

HGC-27 = type: functional, cell-based, Homo sapiens; conditions: Homo sapiens, HGC-27;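 further: growth inhibition of human HGC-27 cells, read out in a cell viability assay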
Description: SANGER: Inhibition of human HGC-27 cell growth in a cell viability assay.

OVCAR-8 = type: functional, cell-based, Homo sapiens; conditions: Homo sapiens, OVCAR-8;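 further: growth inhibition of human OVCAR-8 cells, read out by a cell viability assay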
Description: SANGER: Inhibition of human OVCAR-8 cell growth in a cell viability assay.

EOL1 = type: functional, cell-based; conditions: Homo sapiens;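 further: growth inhibition of EoL-1 cells, read out by a cell viability assay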
Description: SANGER: Inhibition of human EoL-1-cell cell growth in a cell viability assay.

ES1 = type: functional, cell-based, Homo sapiens; conditions: Homo sapiens, ES1;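 further: growth inhibition of ES1 cells, read out with a cell viability assay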
Description: SANGER: Inhibition of human ES1 cell growth in a cell viability assay.

HCC2218 = type: functional, cell-based; conditions: Homo sapiens;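 further: cell viability assay read-out, with IC50 given as the concentration that inhibits growth of the cell line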
Description: SANGER: Inhibition of human HCC2218 cell growth in a cell viability assay.

RMG-I = type: functional, cell-based, Homo sapiens; conditions: Homo sapiens, RMG-I;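 further: growth inhibition of human RMG-I cells, read out with a cell viability assay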
Description: SANGER: Inhibition of human RMG-I cell growth in a cell viability assay.

NCI-H1395 = type: functional, cell-based, Homo sapiens; conditions: Homo sapiens, NCI-H1395;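 further: cell viability assay read-out quantifying reduced proliferation of human NCI-H1395 cells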
Description: SANGER: Inhibition of human NCI-H1395 cell growth in a cell viability assay.

NB17 = type: functional, cell-based; conditions: Homo sapiens;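 further: growth inhibition of NB17 cells, read out with a cell viability assay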
Description: SANGER: Inhibition of human NB17 cell growth in a cell viability assay.

EFO-27 = type: functional, cell-based, Homo sapiens; conditions: Homo sapiens, EFO-27;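 further: growth inhibition of EFO-27 cells, read out with a cell viability assay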
Description: SANGER: Inhibition of human EFO-27 cell growth in a cell viability assay.

SK-MEL-1 = type: functional, cell-based; conditions: Homo sapiens;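 further: growth inhibition of human SK-MEL-1 cells, read out by a cell viability assay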
Description: SANGER: Inhibition of human SK-MEL-1 cell growth in a cell viability assay.

KMOE-2 = type: functional, cell-based; conditions: Homo sapiens;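 further: growth inhibition of human KMOE-2 cells, read out with a cell viability assay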
Description: SANGER: Inhibition of human KMOE-2 cell growth in a cell viability assay.

Measured: IC50

CCOc1nc(NC(=O)Cc2cc(OC)ccc2OC)cc(N)c1C#N
> 10000 nM: P12-Ichikawa | ML-2 | EW-1 | COLO-320-HSR | NB14 | SNU1 | CGTH-W-1 | NCI-H1770 | ES1
not listed: KMOE-2
> 10 µM: all other assays above

CN(Cc1cnc2nc(N)nc(N)c2n1)c1ccc(C(=O)N[C@@H](CCC(=O)O)C(=O)O)cc1 [METHOTREXATE]
97.4 nM: KMOE-2
31.2 nM: CGTH-W-1
52.4 nM: COLO-320-HSR
75 nM: NB14
4.97 nM: ML-2
41.3 nM: P12-Ichikawa
168 nM: EW-1
16.4 nM: ES1
1.98 nM: NCI-H1770
7.51 nM: SNU1
not listed: HuTu80 | HOP-62 | MFH-ino | KY821 | LB373-MEL-D | EOL1 | HCC2218
> 0.2 µM: all other assays above
